Measured values taken from patent US20230009608A1, “GRK2 INHIBITORS AND USES THEREOF” (Cygnal Therapeutics, Inc., priority 2020, published 2023).

What follows are molecules tested against T1, GRK2 (Homo sapiens, UniProt P25098) (assay: ADPGlo GRK2 Inhibition Assay (Example 8)). Settings: ADPGlo GRK2 enzyme assay; read-out: A: Enzymatic GRK2: IC50 (nM) (Example 8).
T1 construct: purchased SignalChem A14-10G
T1 sequence (P25098 1-689): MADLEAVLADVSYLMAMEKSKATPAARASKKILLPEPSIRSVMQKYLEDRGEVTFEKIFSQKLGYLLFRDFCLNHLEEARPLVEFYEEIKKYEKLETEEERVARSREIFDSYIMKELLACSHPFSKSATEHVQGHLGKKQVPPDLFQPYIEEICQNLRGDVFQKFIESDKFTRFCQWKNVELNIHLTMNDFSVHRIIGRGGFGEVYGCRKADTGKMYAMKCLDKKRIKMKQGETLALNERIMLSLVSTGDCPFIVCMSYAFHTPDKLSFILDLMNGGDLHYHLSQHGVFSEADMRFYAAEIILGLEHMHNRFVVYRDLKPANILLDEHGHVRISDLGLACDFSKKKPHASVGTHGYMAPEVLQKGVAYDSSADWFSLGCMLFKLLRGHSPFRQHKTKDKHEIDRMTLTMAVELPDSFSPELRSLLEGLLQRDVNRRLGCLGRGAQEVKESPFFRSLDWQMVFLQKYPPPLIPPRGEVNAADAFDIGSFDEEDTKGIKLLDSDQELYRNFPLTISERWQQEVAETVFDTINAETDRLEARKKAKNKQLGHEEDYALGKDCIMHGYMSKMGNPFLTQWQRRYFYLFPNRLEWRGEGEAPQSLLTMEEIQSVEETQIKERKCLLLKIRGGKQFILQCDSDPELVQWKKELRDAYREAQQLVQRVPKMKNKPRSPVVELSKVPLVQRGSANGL
Assay type: biochemical
Procedure: HTS was performed using 1 μM compound.
Compounds were dissolved in 100% DMSO, serially diluted tree-fold from 100 μM concentration to 46 nM and transferred (50 nL) into assay ready plate.
Materials: GRK2 was purchased from SignalChem (Cat #A14-10G, Lot #X^645-3). Substrate GRKtide was from SignalChem (Cat #G46-58, Lot #R339-6). ADP-Glo Kinase Assay from Promega (Cat #V9102). Assay buffer consisted of 25 mMv HEPES (pH7.5), 10 mMv MgCl2, 0.01% Tween-20, 1 mM DDT. 384-well white plates were from Greiner […] (Item #784075).
HTS protocol: Take 384 well plate with 50 nL of compound in columns 3-22/DMSO solution 1-2,23-24. Add 2.5 μL assay buffer to columns 23 and 24 using Thermo Scientific Multidrop Combi Dispenser. Add 2.5 μL of 2× enzyme solution (15 nM in 1× assay buffer) using Thermo Scientific Multidrop Combi Reagent Dispenser to all columns except of 23 and 24. Incubate for 15 minutes. Fill plate with 2.5 μL of 2× substrate mix (20 μM ATP and 0.6 mg/nt GRKtide in Ix assay buffer) using Thermo Scientific Multidrop Combi Reagent Dispenser. Spin 15 seconds at 1000 rpm and incubate for 180 min at room temperature. Add 5 μL ADP-Glo reagent to all the wells. Spin 15 seconds at 1000 rpm and incubate for 40 min at room temperature. Add 10 μL Detection solution to all the wells. Incubate for 30 min at room temperature. Read plate in Luminescent modeon BMG PheraStar FSX (gain=3600).
Data Analysis: Data were analyzed in GraphPad Prism 8.0.2. Each HTS plate contains compounds in columns 3-22, controls (enzyme, no compound) in columns 1 and 2, and blanks (no enzyme) in columns 23 and 24. HTS percent inhibition was calculated for each compound from the signal in luminescence units and the mean of the plate controls and the mean of the plate blanks using the following equation: % Inhibition=100*(1−((signal-blank mean)/(control mean-blank mean))). At the final stage of data processing, we obtain dose-response curves, tables and SDF-files with the results of screening for each substance.

| Structure (SMILES) | IC50 |
| --- | --- |
| COc1cccc([C@@H](C)NC(=O)c2cccc(NCc3nnc(-c4ccncc4)[nH]3)c2)c1 | 81.6 nM |
| CN1CC[C@H](NC(=O)c2cccc(NCc3nnc(-c4ccncn4)n3C)c2)c2ccccc21 | 85 nM |
| COC1COc2ccccc2C1NC(=O)c1cccc(NCc2nnc(-c3ccncn3)n2C)c1 (stereo not drawn) | 59.1 nM |
| CNS(=O)(=O)c1ccccc1CNC(=O)c1cccc(NCc2nnc(-c3ccncn3)n2C)c1 | 62.5 nM |
| CNS(=O)(=O)Cc1ccccc1CNC(=O)c1cccc(NCc2nnc(-c3ccncn3)n2C)c1 | 68.9 nM |
| CC(NC(=O)c1cccc(NCc2nnc(-c3ccncn3)n2C)c1)c1ccccc1NS(C)(=O)=O (stereo not drawn) | 68 nM |
| CN1CCN(c2ccccc2CNC(=O)c2cccc(NCc3nnc(-c4ccncn4)n3C)c2)CC1 | 184 nM |
| Cn1c(CNc2cccc(C(=O)NCc3cc(F)ccc3N3CCOCC3)c2)nnc1-c1ccncn1 | 104 nM |
| Cc1ccc(CNC(=O)c2cccc(NCc3nnc(-c4ccncn4)n3C)c2)c(N2CCOCC2)c1 | 412 nM |
| Cn1c(CNc2cccc(C(=O)NCc3ccccc3S(=O)(=O)N3CCOCC3)c2)nnc1-c1ccncn1 | 52.8 nM |
| Cn1c(CNc2cccc(C(=O)NCc3ccccc3S(=O)(=O)N3CCCCC3)c2)nnc1-c1ccncn1 | 50.5 nM |
| Cn1c(CNc2cccc(C(=O)NCc3ccccc3CS(=O)(=O)N3CCCC3)c2)nnc1-c1ccncn1 | 107 nM |
| Cn1c(CNc2cccc(C(=O)N[C@]3(c4ccccc4F)C[C@H](O)C3)c2)nnc1-c1ccncn1 | 423 nM |
| Cc1nnc(O)c(C(C)NC(=O)c2cccc(NCc3nnc(-c4ccncn4)n3C)c2)c1C (stereo not drawn) | 132 nM |
| Cc1ncc2c(n1)CCCC2NC(=O)c1cccc(NCc2nnc(-c3ccncn3)n2C)c1 (stereo not drawn) | 108 nM |
| Cn1c(CNc2cccc(C(=O)NCc3cc4c(nc3O)CCCC4)c2)nnc1-c1ccncn1 | 192 nM |
| Cn1c(CNc2cccc(C(=O)NCc3ncccc3-n3cccn3)c2)nnc1-c1ccncn1 | 318 nM |

The molecules below were run on PAXF1657 control empty vector cell line (assay: 7-day proliferation assay, PAXF1657 control empty vector cell line (Example 9)). Settings: 168 h; Cell Line: PAXF1657 empty vector (EV) cell line; 7-day; read-out: C: 7-day proliferation assay: IC50 GeoMean.
Assay type: cell-based
Procedure: In order to identify compounds specific for GRK2, we generated two isogenic cell line pairs of the pancreatic cancer cell line PAXF1657, a pair of cells stably overexpressing GRK2 cDNA or the control empty vector and a cell line pair of PAXF1657 GRK2 knockout clonal cells versus non-targeting control clonal cells.
Proliferation Assay: Cellular anti-proliferative activity of compounds was assessed by using the pancreatic cancer cell line, PAXF1657, stably overexpressing GRK2 cDNA or the control empty vector, as well as the parental urinary bladder cancer cell line, 5637. In addition, we also took advantage of GRK2 knockout cell lines that were generated via CRISPR. Cell lines were seeded into tissue culture treated, white-walled, 96-well plates at a density of 500 cells/well in RPMI1640 media supplemented with 10% H.I. FBS and penicillin/streptomycin. Plates were incubated overnight at 37° C., 5% CO2 to allow cells to adhere to the wells. GRK2 inhibitors were added to the cells using a 10-point dilution series with a final concentration ranging from 30 μM-0.0002 μM in 0.3% DMSO. At the time of compound addition, a set of plates, that were not treated with compounds, were collected and cell viability was measured using CellTiter-Glo (Promega). CellTiter-Glo reagent was added to the designed plates and luminescence was measuring using a Biotek Synergy plate reader. The compound treated cells were incubated for 3 days at 37° C., 5% CO2. The media was then aspirated from each well and replaced with fresh media containing GRK2 inhibitors. The compound treated cells were then incubated for an additional 4 days at 37° C., 5% CO2. Cell viability was assessed and at end of the 7-day compound treatment by CellTiterGlo.

| Structure (SMILES) | IC50 |
| --- | --- |
| Cn1c(CNc2cccc(C(=O)NCc3cc(C(F)(F)F)ccn3)c2)nnc1-c1ccncn1 | > 10 µM |
| C[C@H](NC(=O)c1cccc(NCc2nnc(-c3ccncn3)n2C)c1)c1cncc(F)c1 | 2.3 µM |
| Cn1c(CNc2cccc(C(=O)NCc3cn[nH]c3)c2)nnc1-c1ccncn1 | > 10 µM |
| COc1cccc(CNC(=O)c2cccc(NCc3nnc(-c4ccncn4)n3C)c2)c1OC | > 10 µM |
| Cn1c(CNc2cccc(C(=O)NCc3ccnc(C(F)(F)F)c3)c2)nnc1-c1ccncn1 | 0.995 µM |
| COc1ccnc(CNC(=O)c2cccc(NCc3nnc(-c4ccncn4)n3C)c2)c1 | 3.15 µM |
| Cc1ccnc(CNC(=O)c2cccc(NCc3nnc(-c4ccncn4)n3C)c2)n1 | > 10 µM |
| Cn1c(CNc2cccc(C(=O)NCc3ncccn3)c2)nnc1-c1ccncn1 | > 10 µM |
| C[C@H](NC(=O)c1cccc(NCc2nnc(-c3ccncc3)[nH]2)c1)c1ccncc1 | > 10 µM |
| CO[C@H]1C[C@H](CNC(=O)c2cccc(NCc3nnc(-c4ccncc4)[nH]3)c2)C1 | > 10 µM |
| Cn1c(CNC(=O)c2cccc(NCc3nnc(-c4ccncc4)[nH]3)c2)nnc1C1CCC1 | > 10 µM |
| O=C(NCC1(F)CCC1)c1cccc(NCc2nnc(-c3ccncc3)[nH]2)c1 | 3.22 µM |
| CC1(CNC(=O)c2cccc(NCc3nnc(-c4ccncc4)[nH]3)c2)CCCOC1 (stereo not drawn) | > 10 µM |
| COc1cnccc1C(C)NC(=O)c1cccc(NCc2nnc(-c3ccncc3)[nH]2)c1 (stereo not drawn) | > 10 µM |
| CCn1nccc1C(C)NC(=O)c1cccc(NCc2nnc(-c3ccncc3)[nH]2)c1 (stereo not drawn) | > 10 µM |
| CN1CCC(CNC(=O)c2cccc(NCc3nnc(-c4ccncc4)[nH]3)c2)C1=O (stereo not drawn) | > 10 µM |
| O=C(NCc1nnc2n1CCCC2C(F)(F)F)c1cccc(NCc2nnc(-c3ccncc3)[nH]2)c1 (stereo not drawn) | > 10 µM |
| O=C(NCC1CC1(F)F)c1cccc(NCc2nnc(-c3ccncc3)[nH]2)c1 (stereo not drawn) | > 10 µM |
| COC[C@H](NC(=O)c1cccc(NCc2nnc(-c3ccncc3)[nH]2)c1)c1cccnc1 | > 10 µM |
| C[C@H](NC(=O)c1cccc(NCc2nnc(-c3ccncc3)[nH]2)c1)c1ccnn1C | 9.81 µM |
| Cc1nn(C)c(C)c1CNC(=O)c1cccc(NCc2nnc(-c3ccncc3)[nH]2)c1 | > 10 µM |
| O=C(NCc1cccnc1-n1ccnc1)c1cccc(NCc2nnc(-c3ccncc3)[nH]2)c1 | > 10 µM |

| Structure (SMILES) | IC50 |
| --- | --- |
| Cc1nnc(CNC(=O)c2cccc(NCc3nnc(-c4ccncc4)[nH]3)c2)n1C | > 10 µM |
| C[C@H](NC(=O)c1cccc(NCc2nnc(-c3ccncc3)[nH]2)c1)c1cnnn1C | > 10 µM |
| COCCn1nc(C)c(CNC(=O)c2cccc(NCc3nnc(-c4ccncc4)[nH]3)c2)c1C | > 10 µM |
| Cc1n[nH]cc1CNC(=O)c1cccc(NCc2nnc(-c3ccncc3)[nH]2)c1 | > 10 µM |
| Cn1cnnc1CNC(=O)c1cccc(NCc2nnc(-c3ccncc3)[nH]2)c1 | > 10 µM |
| Cn1ncnc1CNC(=O)c1cccc(NCc2nnc(-c3ccncc3)[nH]2)c1 | > 10 µM |
| CCn1cnnc1CNC(=O)c1cccc(NCc2nnc(-c3ccncc3)[nH]2)c1 | > 10 µM |
| CCn1nccc1CNC(=O)c1cccc(NCc2nnc(-c3ccncc3)[nH]2)c1 | 0.739 µM |
| CCn1ncnc1CNC(=O)c1cccc(NCc2nnc(-c3ccncc3)[nH]2)c1 | > 10 µM |
| O=C(NCc1ccncn1)c1cccc(NCc2nnc(-c3ccncc3)[nH]2)c1 | > 10 µM |
| O=C(NCc1cccnn1)c1cccc(NCc2nnc(-c3ccncc3)[nH]2)c1 | > 10 µM |
| COCCn1cc(C(C)NC(=O)c2cccc(NCc3nnc(-c4ccncc4)[nH]3)c2)cn1 (stereo not drawn) | > 10 µM |
| CC(NC(=O)c1cccc(NCc2nnc(-c3ccncc3)[nH]2)c1)c1ncnn1C (stereo not drawn) | > 10 µM |
| CN(C)CCC(NC(=O)c1cccc(NCc2nnc(-c3ccncc3)[nH]2)c1)c1ccccc1 (stereo not drawn) | > 10 µM |
| CC(NC(=O)c1cccc(NCc2nnc(-c3ccncc3)[nH]2)c1)c1cn[nH]c1 (stereo not drawn) | 0.323 µM |
| O=C(NCc1nnc2n1CCC(C(F)(F)F)C2)c1cccc(NCc2nnc(-c3ccncc3)[nH]2)c1 (stereo not drawn) | 89.3 µM |
| CC(NC(=O)c1cccc(NCc2nnc(-c3ccncc3)[nH]2)c1)c1ncn(C)n1 (stereo not drawn) | > 10 µM |
| CN(C)CCC(NC(=O)c1cccc(NCc2nnc(-c3ccncc3)[nH]2)c1)c1cccnc1 (stereo not drawn) | > 10 µM |
| CC(NC(=O)c1cccc(NCc2nnc(-c3ccncc3)[nH]2)c1)c1nncn1C (stereo not drawn) | > 10 µM |
| CCOc1ccccc1CNC(=O)c1cccc(NCc2nnc(-c3ccncc3)[nH]2)c1 | > 30 µM |
| Cc1csc(CNC(=O)c2cccc(NCc3nnc(-c4ccncn4)n3C)c2)n1 [drawing 407] | 0.862 µM |
